Measured values from patent US8580794B2 (AbbVie Inc., priority 2009, dated 2013).

These compounds were tested against GST-Bc1-2 (Homo sapiens, UniProt P10415) (assay: Time Resolved-Fluorescence Resonance Energy Transfer (TR-FRET) Bcl-2 binding assay with F-Bak peptide probe). Details: GST-Bcl-2 1 nM, F-Bak probe 100 nM, Tb-anti-GST 1 nM; '<' = below limit of detection; read-out: TR-FRET Bcl-2 Binding Ki.
Sequence of GST-Bc1-2 (P10415 whole entry): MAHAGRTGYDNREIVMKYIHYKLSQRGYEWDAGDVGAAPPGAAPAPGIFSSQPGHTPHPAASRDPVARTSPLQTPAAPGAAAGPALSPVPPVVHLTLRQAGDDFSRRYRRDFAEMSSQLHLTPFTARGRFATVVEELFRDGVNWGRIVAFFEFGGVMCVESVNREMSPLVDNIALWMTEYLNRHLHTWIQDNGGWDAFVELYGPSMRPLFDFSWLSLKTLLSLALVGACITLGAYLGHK
CC1(C)CCC(CN2CCN(c3ccc(C(=O)NS(=O)(=O)c4ccc(NCc5ccc(OCCN6CCOCC6)cc5)c([N+](=O)[O-])c4)c(Oc4cnc5[nH]ccc5c4)c3)CC2)=C(c2ccc(Cl)cc2)C1 [Example 198, 4-(4-{[2-(4-chlorophenyl)-4,4-dimethylcyclohex-1-en-1-yl]methyl}piperazin-1-yl)-N-[(4-{[4-(2-morpholin-4-ylethoxy)benzyl]amino}-3-nitrophenyl)sulfonyl]-2-(1H-pyrrolo[2,3-b]pyridin-5-yloxy)benzamide] was tested, and the Ki was less than 0.01 nM.
O=C(NS(=O)(=O)c1ccc(OCC2(F)CCOCC2)c([N+](=O)[O-])c1)c1ccc(N2CCN(CC3=C(c4ccc(Cl)cc4)CCC4(CCCC4)C3)CC2)cc1Oc1cnc2[nH]ccc2c1 [Example 73, 4-(4-{[8-(4-chlorophenyl)spiro[4.5]dec-7-en-7-yl]methyl}piperazin-1-yl)-N-({4-[(4-fluorotetrahydro-2H-pyran-4-yl)methoxy]-3-nitrophenyl}sulfonyl)-2-(1H-pyrrolo[2,3-b]pyridin-5-yloxy)benzamide] gave a Ki of less than 0.01 nM.
CC1(C)CCC(CN2CCN(c3ccc(C(=O)NS(=O)(=O)c4cnc(OC[C@@H]5CN(CC#N)CCO5)c(Cl)c4)c(Oc4cnc5[nH]ccc5c4)c3)CC2)=C(c2ccc(Cl)cc2)C1 [Example 244, N-[(5-chloro-6-{[(2S)-4-(cyanomethyl)morpholin-2-yl]methoxy}pyridin-3-yl)sulfonyl]-4-(4-{[2-(4-chlorophenyl)-4,4-dimethylcyclohex-1-en-1-yl]methyl}piperazin-1-yl)-2-(1H-pyrrolo[2,3-b]pyridin-5-yloxy)benzamide] gave a Ki of 0.281 nM.
Compound CC1(C)CCC(CN2CCN(c3ccc(C(=O)NS(=O)(=O)c4ccc(NC[C@@H]5CCCOC5)c([N+](=O)[O-])c4)c(Oc4cnc5[nH]ccc5c4)c3)CC2)=C(c2ccc(Cl)cc2)C1 [Example 11, 4-(4-{[2-(4-chlorophenyl)-4,4-dimethylcyclohex-1-en-1-yl]methyl}piperazin-1-yl)-N-[(3-nitro-4-{[(3S)-tetrahydro-2H-pyran-3-ylmethyl]amino}phenyl)sulfonyl]-2-(1H-pyrrolo[2,3-b]pyridin-5-yloxy)benzamide] has a Ki of 0.016 nM.
For COCCOc1ncc(S(=O)(=O)NC(=O)c2ccc(N3CCN(CC4=C(c5ccc(Cl)cc5)CC(C)(C)CC4)CC3)cc2Oc2cnc3[nH]ccc3c2)cc1Cl [Example 292, N-{[5-chloro-6-(2-methoxyethoxy)pyridin-3-yl]sulfonyl}-4-(4-{[2-(4-chlorophenyl)-4,4-dimethylcyclohex-1-en-1-yl]methyl}piperazin-1-yl)-2-(1H-pyrrolo[2,3-b]pyridin-5-yloxy)benzamide], the Ki was 0.19 nM.
Work on CC(=O)N[C@H]1CC[C@H](Nc2ccc(S(=O)(=O)NC(=O)c3ccc(N4CCN(CC5=C(c6ccc(Cl)cc6)CC(C)(C)CC5)CC4)cc3Oc3cnc4[nH]ccc4c3)cc2[N+](=O)[O-])CC1 [Example 179, Trans-N-[(4-{[4-(acetylamino)cyclohexyl]amino}-3-nitrophenyl)sulfonyl]-4-(4-{[2-(4-chlorophenyl)-4,4-dimethylcyclohex-1-en-1-yl]methyl}piperazin-1-yl)-2-(1H-pyrrolo[2,3-b]pyridin-5-yloxy)benzamide] yielded a Ki of less than 0.01 nM.
CC1(C)CCC(CN2CCN(c3ccc(C(=O)NS(=O)(=O)c4ccc(OCC5COCCN5C(=O)OC(C)(C)C)c([N+](=O)[O-])c4)c(Oc4cnc5[nH]ccc5c4)c3)CC2)=C(c2ccc(Cl)cc2)C1 (centres unmarked) [Example 77, tert-butyl 3-{[4-({[4-(4-{[2-(4-chlorophenyl)-4,4-dimethylcyclohex-1-en-1-yl]methyl}piperazin-1-yl)-2-(1H-pyrrolo[2,3-b]pyridin-5-yloxy)benzoyl]amino}sulfonyl)-2-nitrophenoxy]methyl}morpholine-4-carboxylate] was tested, and the Ki was 0.213 nM.
With CC1(C)CCC(CN2CCN(c3ccc(C(=O)NS(=O)(=O)c4ccc(OCC5CCOCC5)c(C(N)=O)c4)c(Oc4cnc5[nH]ccc5c4)c3)CC2)=C(c2ccc(Cl)cc2)C1 [Example 38, N-{[3-(aminocarbonyl)-4-(tetrahydro-2H-pyran-4-ylmethoxy)phenyl]sulfonyl}-4-(4-{[2-(4-chlorophenyl)-4,4-dimethylcyclohex-1-en-1-yl]methyl}piperazin-1-yl)-2-(1H-pyrrolo[2,3-b]pyridin-5-yloxy)benzamide] the Ki was 0.3 nM.
In the case of COCCOCCS(=O)(=O)c1ccc(S(=O)(=O)NC(=O)c2ccc(N3CCN(CC4=C(c5ccc(Cl)cc5)CC(C)(C)CC4)CC3)cc2Oc2cnc3[nH]ccc3c2)cc1[N+](=O)[O-] [Example 59, 4-(4-{[2-(4-chlorophenyl)-4,4-dimethylcyclohex-1-en-1-yl]methyl}piperazin-1-yl)-N-[(4-{[2-(2-methoxyethoxy)ethyl]sulfonyl}-3-nitrophenyl)sulfonyl]-2-(1H-pyrrolo[2,3-b]pyridin-5-yloxy)benzamide], the Ki is reported as 0.203 nM.
In the case of CC1(C)CCC(CN2CCN(c3ccc(C(=O)NS(=O)(=O)c4ccc(NCC5CN(C6COC6)CCO5)c([N+](=O)[O-])c4)c(Oc4cnc5[nH]ccc5c4)c3)CC2)=C(c2ccc(Cl)cc2)C1 (centres unmarked) [Example 217, 4-(4-{[2-(4-chlorophenyl)-4,4-dimethylcyclohex-1-en-1-yl]methyl}piperazin-1-yl)-N-{[3-nitro-4-({[4-(oxetan-3-yl)morpholin-2-yl]methyl}amino)phenyl]sulfonyl}-2-(1H-pyrrolo[2,3-b]pyridin-5-yloxy)benzamide], the Ki is reported as less than 0.01 nM.
Work on COC1(Cc2ccccc2-c2ccc(Cl)cc2)CCN(c2ccc(C(=O)NS(=O)(=O)c3ccc(NCC4CCOCC4)c([N+](=O)[O-])c3)c(Oc3cnc4[nH]ccc4c3)c2)CC1 [Example 264, 4-{4-[(4′-chlorobiphenyl-2-yl)methyl]-4-methoxypiperidin-1-yl}-N-({3-nitro-4-[(tetrahydro-2H-pyran-4-ylmethyl)amino]phenyl}sulfonyl)-2-(1H-pyrrolo[2,3-b]pyridin-5-yloxy)benzamide] yielded a Ki of 0.036 nM.
For CC1(C)CCC(CN2CCN(c3ccc(C(=O)NS(=O)(=O)c4ccc(NN5CCN(C6CCOCC6)CC5)c([N+](=O)[O-])c4)c(Oc4cnc5[nH]ccc5c4)c3)CC2)=C(c2ccc(Cl)cc2)C1 [Example 237, 4-(4-{[2-(4-chlorophenyl)-4,4-dimethylcyclohex-1-en-1-yl]methyl}piperazin-1-yl)-N-[(3-nitro-4-{[4-(tetrahydro-2H-pyran-4-yl)piperazin-1-yl]amino}phenyl)sulfonyl]-2-(1H-pyrrolo[2,3-b]pyridin-5-yloxy)benzamide], the Ki was 0.024 nM.
Compound CC1(C)CCC(CN2CCN(c3ccc(C(=O)NS(=O)(=O)c4cnc(OCC5COCCO5)c(Br)c4)c(Oc4cnc5[nH]ccc5c4)c3)CC2)=C(c2ccc(Cl)cc2)C1 (centres unmarked) [Example 50, N-{[5-bromo-6-(1,4-dioxan-2-ylmethoxy)pyridin-3-yl]sulfonyl}-4-(4-{[2-(4-chlorophenyl)-4,4-dimethylcyclohex-1-en-1-yl]methyl}piperazin-1-yl)-2-(1H-pyrrolo[2,3-b]pyridin-5-yloxy)benzamide] has a Ki of 0.021 nM.
CC1(C)CCC(CN2CCN(c3ccc(C(=O)NS(=O)(=O)c4cnc(NCC5CN(C6CC6)CCO5)c(Cl)c4)c(Oc4cnc5[nH]ccc5c4)c3)CC2)=C(c2ccc(Cl)cc2)C1 (centres unmarked) [Example 335, N-[(5-chloro-6-{[(4-cyclopropylmorpholin-2-yl)methyl]amino}pyridin-3-yl)sulfonyl]-4-(4-{[2-(4-chlorophenyl)-4,4-dimethylcyclohex-1-en-1-yl]methyl}piperazin-1-yl)-2-(1H-pyrrolo[2,3-b]pyridin-5-yloxy)benzamide] showed a Ki of 0.15 nM.
In the case of CC1(C)CCC(CN2CCN(c3ccc(C(=O)NS(=O)(=O)c4ccc5ccccc5c4)c(Oc4cnc5[nH]ccc5c4)c3)CC2)=C(c2ccc(Cl)cc2)C1 [Example 14, 4-(4-{[2-(4-chlorophenyl)-4,4-dimethylcyclohex-1-en-1-yl]methyl}piperazin-1-yl)-N-(2-naphthylsulfonyl)-2-(1H-pyrrolo[2,3-b]pyridin-5-yloxy)benzamide], the Ki is reported as 2.8 nM.
For CC1(C)CCC(CN2CCN(c3ccc(C(=O)NS(=O)(=O)c4ccc(NCCCN5CCCC5)c([N+](=O)[O-])c4)c(Oc4cccc5[nH]c6ccccc6c45)c3)CC2)=C(c2ccc(Cl)cc2)C1 [Example 8, 2-(9H-carbazol-4-yloxy)-4-(4-{[2-(4-chlorophenyl)-4,4-dimethylcyclohex-1-en-1-yl]methyl}piperazin-1-yl)-N-({3-nitro-4-[(3-pyrrolidin-1-ylpropyl)amino]phenyl}sulfonyl)benzamide], the Ki was 0.153 nM.
CC1(C)CCC(CN2CCN(c3ccc(C(=O)NS(=O)(=O)c4cc(F)c(NCC5CCOCC5)cc4Cl)c(Oc4cnc5[nH]ccc5c4)c3)CC2)=C(c2ccc(Cl)cc2)C1 [Example 54, N-({2-chloro-5-fluoro-4-[(tetrahydro-2H-pyran-4-ylmethyl)amino]phenyl}sulfonyl)-4-(4-{[2-(4-chlorophenyl)-4,4-dimethylcyclohex-1-en-1-yl]methyl}piperazin-1-yl)-2-(1H-pyrrolo[2,3-b]pyridin-5-yloxy)benzamide] was tested, and the Ki was 2.07 nM.
CO[C@H]1CC[C@H](COc2ncc(S(=O)(=O)NC(=O)c3ccc(N4CCN(CC5=C(c6ccc(Cl)cc6)CC(C)(C)CC5)CC4)cc3Oc3cnc4[nH]ccc4c3)cc2Cl)CC1 [Example 210, Trans-N-({5-chloro-6-[(4-methoxycyclohexyl)methoxy]pyridin-3-yl}sulfonyl)-4-(4-{[2-(4-chlorophenyl)-4,4-dimethylcyclohex-1-en-1-yl]methyl}piperazin-1-yl)-2-(1H-pyrrolo[2,3-b]pyridin-5-yloxy)benzamide] showed a Ki of 0.011 nM.
CCN(C)C(=O)N1CCOC(CNc2ccc(S(=O)(=O)NC(=O)c3ccc(N4CCN(CC5=C(c6ccc(Cl)cc6)CC(C)(C)CC5)CC4)cc3Oc3cnc4[nH]ccc4c3)cc2[N+](=O)[O-])C1 (centres unmarked) [Example 318, 2-{[(4-{[4-(4-{[2-(4-chlorophenyl)-4,4-dimethylcyclohex-1-en-1-yl]methyl}piperazin-1-yl)-2-(1H-pyrrolo[2,3-b]pyridin-5-yloxy)benzoyl]sulfamoyl}-2-nitrophenyl)amino]methyl}-N-ethyl-N-methylmorpholine-4-carboxamide] gave a Ki of less than 0.01 nM.

Same assay, conditions: Table 5, direct comparison Z=N vs Z=C analogs; read-out: Bcl-2 FRET ki
With CC1(C)CCC(CN2CCN(c3ccc(C(=O)NS(=O)(=O)c4ccc(NC[C@@H]5CCCOC5)c([N+](=O)[O-])c4)c(Oc4cnc5[nH]ccc5c4)c3)CC2)=C(c2ccc(Cl)cc2)C1 [Example 11, 4-(4-{[2-(4-chlorophenyl)-4,4-dimethylcyclohex-1-en-1-yl]methyl}piperazin-1-yl)-N-[(3-nitro-4-{[(3S)-tetrahydro-2H-pyran-3-ylmethyl]amino}phenyl)sulfonyl]-2-(1H-pyrrolo[2,3-b]pyridin-5-yloxy)benzamide] the Ki was 0.016 nM.
